# Target: T1, Alpha-1A adrenergic receptor (Homo sapiens, UniProt P35348)
# T1 sequence (P35348 whole entry): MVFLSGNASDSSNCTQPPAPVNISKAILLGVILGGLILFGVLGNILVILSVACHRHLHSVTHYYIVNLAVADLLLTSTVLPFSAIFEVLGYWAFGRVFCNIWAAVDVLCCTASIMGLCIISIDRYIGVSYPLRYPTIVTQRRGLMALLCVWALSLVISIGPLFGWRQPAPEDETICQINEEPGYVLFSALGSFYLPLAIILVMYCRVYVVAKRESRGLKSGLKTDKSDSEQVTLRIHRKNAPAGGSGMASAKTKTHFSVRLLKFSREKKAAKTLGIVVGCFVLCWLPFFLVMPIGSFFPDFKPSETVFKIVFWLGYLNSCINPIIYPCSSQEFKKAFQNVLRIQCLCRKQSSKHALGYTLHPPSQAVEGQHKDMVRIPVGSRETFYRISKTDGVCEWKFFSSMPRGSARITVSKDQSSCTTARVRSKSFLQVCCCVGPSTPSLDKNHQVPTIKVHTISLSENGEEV
# Test: Binding affinity to Homo sapiens (human) alpha1A adrenergic receptor
structure (smiles),measurement,value
CCC1=C(C(N)=O)C(c2ccc([N+](=O)[O-])cc2)C(C(=O)NCCCN2CCC(c3ccccc3)(c3ccccc3)CC2)=C(CC)N1 (stereo unspecified),Ki,1.1 nM
